# Data taken from patent publication US10894784B2, “Heteroarylbenzimidazole compounds” (BAYER PHARMA AKTIENGESELLSCHAFT, priority 2015, dated 2021).
# Target: TBK1 (Homo sapiens (Human), UniProt Q9UHD2)
# Assay: TBK1 low ATP kinase assay (in vitro assay 1)
# Format: biochemical
# Settings: in vitro assay 1, read-out: TBK1 low ATP kinase assay IC50
# TBK1, sequence (Q9UHD2 whole entry): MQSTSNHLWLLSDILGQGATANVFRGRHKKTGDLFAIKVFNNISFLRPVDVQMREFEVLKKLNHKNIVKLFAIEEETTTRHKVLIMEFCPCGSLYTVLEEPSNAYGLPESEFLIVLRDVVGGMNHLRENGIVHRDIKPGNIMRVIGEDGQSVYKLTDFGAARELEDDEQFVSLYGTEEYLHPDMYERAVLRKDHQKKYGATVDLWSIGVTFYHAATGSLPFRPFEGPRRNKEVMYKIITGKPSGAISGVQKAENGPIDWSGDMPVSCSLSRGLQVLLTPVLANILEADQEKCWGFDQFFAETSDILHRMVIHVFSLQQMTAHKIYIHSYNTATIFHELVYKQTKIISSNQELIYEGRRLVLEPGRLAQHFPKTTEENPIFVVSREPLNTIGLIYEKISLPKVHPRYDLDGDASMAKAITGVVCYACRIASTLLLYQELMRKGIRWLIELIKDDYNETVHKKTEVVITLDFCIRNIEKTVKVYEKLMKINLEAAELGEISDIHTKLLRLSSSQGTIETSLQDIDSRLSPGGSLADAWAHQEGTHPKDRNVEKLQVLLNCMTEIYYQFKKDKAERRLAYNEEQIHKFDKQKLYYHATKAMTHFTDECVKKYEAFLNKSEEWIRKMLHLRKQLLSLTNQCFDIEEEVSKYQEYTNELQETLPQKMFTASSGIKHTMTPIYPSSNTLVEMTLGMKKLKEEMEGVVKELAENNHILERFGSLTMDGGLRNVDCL
row,Compound,IC50 [nM]
1,"COc1cnccc1-c1ccc2nc(Nc3cc(CN4CCN(C(=O)CC(F)(F)F)CC4)ccn3)[nH]c2c1OCC(C)C [Example 50.01, 3,3,3-trifluoro-1-{4-[(2-{[6-(3-methoxypyridin-4-yl)-7-(2-methylpropoxy)-1H-benzimidazol-2-yl]amino}pyridin-4-yl)methyl]piperazin-1-yl}propan-1-one]",499
2,"CC(c1ccnc(Nc2nc3ccc(-c4cnn(CC5CC5(F)F)c4)cc3[nH]2)c1)N1CCN(C(=O)OC(C)(C)C)CC1 (single isomer, unassigned) [Example 55.01.01, tert-butyl 4-[(1R or 1S)-1-(2-{[6-(1-{[(1R or 1S)-2,2-difluorocyclopropyl]methyl}-1H-pyrazol-4-yl)-1H-benzimidazol-2-yl]amino}pyridin-4-yl)ethyl]piperazine-1-carboxylate]",5.5
3,"CCN(CC)c1cc(-c2ccc3nc(Nc4cc(CN5CCN(C(=O)CC(F)(F)F)CC5)ccn4)[nH]c3c2)ncn1 [Example 155.02, 1-(4-{[2-({6-[6-(diethylamino)pyrimidin-4-yl]-1H-benzimidazol-2-yl}amino)pyridin-4-yl]methyl}piperazin-1-yl)-3,3,3-trifluoropropan-1-one]",15
4,"CC(c1ccnc(Nc2nc3ccc(-c4cc(N5CCCC5)ncn4)cc3[nH]2)c1)N1CCN(C(=O)C2(C)CC2(F)F)CC1 (single isomer, unassigned) [Example 117.06, [(1RS)-2,2-difluoro-1-methylcyclopropyl](4-{(1R or S)-1-[2-({6-[6-(pyrrolidin-1-yl)pyrimidin-4-yl]-1H-benzimidazol-2-yl}amino)pyridin-4-yl]ethyl}piperazin-1-yl)methanone]",0.86
5,"COc1c(NC2CC2)ncnc1-c1ccc2nc(Nc3cc(CN4CCN(C(=O)OC(C)(C)C)CC4)ccn3)[nH]c2c1 [Example 108.01, tert-butyl 4-{[2-({6-[6-(cyclopropylamino)-5-methoxypyrimidin-4-yl]-1H-benzimidazol-2-yl}amino)pyridin-4-yl]methyl}piperazine-1-carboxylate]",35
6,"COc1cc(-c2ccc3nc(Nc4cc(C(C)N5CCN(C(=O)CC(F)(F)F)CC5)ccn4)[nH]c3c2)ncn1 (racemic) [Example 34.02.01, (rac)-3,3,3-trifluoro-1-{4-[1-(2-{[6-(6-methoxypyrimidin-4-yl)-1H-benzimidazol-2-yl]amino}pyridin-4-yl)ethyl]piperazin-1-yl}propan-1-one]",12.4
7,"COc1cnccc1-c1ccc2nc(Nc3cc(CN4CCN(C(=O)CC5CC5)CC4)ccn3)[nH]c2c1 [Example 04.05, 2-cyclopropyl-1-{4-[(2-{[6-(3-methoxypyridin-4-yl)-1H-benzimidazol-2-yl]amino}pyridin-4-yl)methyl]piperazin-1-yl}ethanone]",25.3
8,"3,3,3-trifluoro-1-{4-[(1R or 1S)-1-{2-[(6-{1-[(1-methylcyclopropyl)methyl]-1H-pyrazol-4-yl}-1H-benzimidazol-2-yl)amino]pyridin-4-yl}ethyl]piperazin-1-yl}propan-1-one [Example 68.02]",1.5
9,"O=C(CC1CC1)N1CCN(Cc2ccnc(Nc3nc4ccc(-c5ccncn5)cc4[nH]3)c2)CC1 [Example 23.01.01, 2-cyclopropyl-1-{4-[(2-{[6-(pyrimidin-4-yl)-1H-benzimidazol-2-yl]amino}pyridin-4-yl)methyl]piperazin-1-yl}ethanone]",33.4
10,"CC(c1ccnc(Nc2nc3ccc(-c4ccncn4)cc3[nH]2)c1)N1CCN(C(=O)CC(F)(F)F)CC1 (single isomer, unassigned) [Example 23.05.02.B, 3,3,3-trifluoro-1-{4-[(1S or 1R)-1-(2-{[6-(pyrimidin-4-yl)-1H-benzimidazol-2-yl]amino}pyridin-4-yl)ethyl]piperazin-1-yl}propan-1-one]",1.86
11,"CCOc1cc(-c2ccc3nc(Nc4cc(CN5CCN(C(=O)C6CC6)CC5)ccn4)[nH]c3c2)ncn1 [Example 161.03, cyclopropyl{4-[(2-{[6-(6-ethoxypyrimidin-4-yl)-1H-benzimidazol-2-yl]amino}pyridin-4-yl)methyl]piperazin-1-yl}methanone]",6.7
12,"CN(CC1CC1)c1cc(-c2ccc3nc(Nc4cc(CN5CCN(C(=O)OC(C)(C)C)CC5)ccn4)[nH]c3c2)ncn1 [Example 141.01, tert-butyl 4-({2-[(6-{6-[(cyclopropylmethyl)(methyl)amino]pyrimidin-4-yl}-1H-benzimidazol-2-yl)amino]pyridin-4-yl}methyl)piperazin-1-carboxylate]",43
13,"Cc1noc(C)c1-c1cc(-c2ccc3nc(Nc4cc(CN5CCN(C(=O)CC(F)(F)F)CC5)ccn4)[nH]c3c2)ncn1 [Example 92.02, 1-(4-{[2-({6-[6-(3,5-dimethyl-1,2-oxazol-4-yl)pyrimidin-4-yl]-1H-benzimidazol-2-yl}amino)pyridin-4-yl]methyl}piperazin-1-yl)-3,3,3-trifluoropropan-1-one]",450

# The remaining lines, values ahead:
row,IC50 [nM],Compound
1,150,"COc1cccnc1N1CCN(Cc2ccnc(Nc3nc4ccc(-c5nc(C)no5)cc4[nH]3)c2)CC1 [Example 101.17, N-(4-{[4-(3-methoxypyridin-2-yl)piperazin-1-yl]methyl}pyridin-2-yl)-6-(3-methyl-1,2,4-oxadiazol-5-yl)-1H-benzimidazol-2-amine]"
2,2.1,"CC(c1ccnc(Nc2nc3ccc(-c4cnn(CC5CC5(F)F)c4)c(F)c3[nH]2)c1)N1CCN(C(=O)CC(F)(F)F)CC1 (single isomer, unassigned) [Example 86.02, 1-{4-[(1R or 1S)-1-(2-{[6-(1-{[(1RS)-2,2-difluorocyclopropyl]methyl}-1H-pyrazol-4-yl)-7-fluoro-1H-benzimidazol-2-yl]amino}pyridin-4-yl)ethyl]piperazin-1-yl}-3,3,3-trifluoropropan-1-one]"
3,9.3,"CN(c1cc(-c2ccc3nc(Nc4cc(CN5CCN(C(=O)CC(F)(F)F)CC5)ccn4)[nH]c3c2)ncn1)C1CCC1 [Example 156.02, 1-[4-({2-[(6-{6-[cyclobutyl(methyl)amino]pyrimidin-4-yl}-1H-benzimidazol-2-yl)amino]pyridin-4-yl}methyl)piperazin-1-yl]-3,3,3-trifluoropropan-1-one]"
4,7.6,"CN(c1cc(-c2ccc3nc(Nc4cc(CN5CCN(C(=O)C6CC6)CC5)ccn4)[nH]c3c2)ncn1)C1CC1 [Example 157.03, cyclopropyl[4-({2-[(6-{6-[cyclopropyl(methyl)amino]pyrimidin-4-yl}-1H-benzimidazol-2-yl)amino]pyridin-4-yl}methyl)piperazin-1-yl]methanone]"
5,4.31,"CC(C)Oc1cnccc1-c1ccc2nc(Nc3cc(CN4CCN(C(=O)CC(F)(F)F)CC4)ccn3)[nH]c2c1 [Example 06.01, 3,3,3-trifluoro-1-(4-{[2-({6-[3-(propan-2-yloxy)pyridin-4-yl]-1H-benzimidazol-2-yl}amino)pyridin-4-yl]methyl}piperazin-1-yl)propan-1-one]"
6,1.4,"COc1c(-c2ccc3nc(Nc4cc(C(C)N5CCN(C(=O)CC(F)(F)F)CC5)ccn4)[nH]c3c2)ncnc1N1CCCC1 (single isomer, unassigned) [Example 112.03, 3,3,3-trifluoro-1-(4-{(1R or 1S)-1-[2-({6-[5-methoxy-6-(pyrrolidin-1-yl)pyrimidin-4-yl]-1H-benzimidazol-2-yl}amino)pyridin-4-yl]ethyl}piperazin-1-yl)propan-1-one]"
7,12.3,"Cc1cc(-c2ccc3nc(Nc4cc(CN5CCN(C(=O)C6CC6)CC5)ccn4)[nH]c3c2)ncn1 [Example 30.01.04, cyclopropyl{4-[(2-{[6-(6-methylpyrimidin-4-yl)-1H-benzimidazol-2-yl]amino}pyridin-4-yl)methyl]piperazin-1-yl}methanone]"
8,4.8,"CN(C)c1cc(-c2ccc3nc(Nc4cc(CN5CCN(C(=O)C6CC6)CC5)ccn4)[nH]c3c2)ncn1 [Example 143.03, cyclopropyl(4-{[2-({6-[6-(dimethylamino)pyrimidin-4-yl]-1H-benzimidazol-2-yl}amino)pyridin-4-yl]methyl}piperazin-1-yl)methanone]"
9,64.7,"CCn1cc(-c2ccc3nc(Nc4cc(CN5CCN(C(=O)CC(F)(F)F)CC5)ccn4)[nH]c3c2OCC(C)C)cn1 [Example 52.01, 1-{4-[(2-{[6-(1-ethyl-1H-pyrazol-4-yl)-7-(2-methylpropoxy)-1H-benzimidazol-2-yl]amino}pyridin-4-yl)methyl]piperazin-1-yl}-3,3,3-trifluoropropan-1-one]"
10,76,"Cc1cc(-c2ccc3nc(Nc4cc(C(C)N5CCN(C(=O)C6CC6)CC5)ccn4)[nH]c3c2Cl)ncn1 (stereo not drawn) [Example 98.03, {4-[(1R or IS)-1-(2-{[7-chloro-6-(6-methylpyrimidin-4-yl)-1H-benzimidazol-2-yl]amino}pyridin-4-yl)ethyl]piperazin-1-yl}(cyclopropyl)methanone]"
11,2.6,"COc1c(-c2ccc3nc(Nc4cc(C(C)N5CCN(C(=O)OC(C)(C)C)CC5)ccn4)[nH]c3c2)ncnc1N1CCC1 (single isomer, unassigned) [Example 111.01, tert-butyl 4-{(1R or 1S)-1-[2-({6-[6-(azetidin-1-yl)-5-methoxypyrimidin-4-yl]-1H-benzimidazol-2-yl}amino)pyridin-4-yl]ethyl}piperazine-1-carboxylate]"
12,8.33,"COc1cncnc1-c1ccc2nc(Nc3cc(C(C)N4CCN(C(=O)CC5CC5)CC4)ccn3)[nH]c2c1 (single isomer, unassigned) [Example 35.03.02.A, 2-cyclopropyl-1-{4-[(1R or 1S)-1-(2-{[6-(5-methoxypyrimidin-4-yl)-1H-benzimidazol-2-yl]amino}pyridin-4-yl)ethyl]piperazin-1-yl}ethanone]"
13,11,"O=C(CC(F)(F)F)N1CCN(Cc2ccnc(Nc3nc4ccc(-c5ccnc(N6CCOCC6)c5)cc4[nH]3)c2)CC1 [Example 134.02, 3,3,3-trifluoro-1-(4-{[2-({6-[2-(morpholin-4-yl)pyridin-4-yl]-1H-benzimidazol-2-yl}amino)pyridin-4-yl]methyl}piperazin-1-yl)propan-1-one]"
14,35.4,"Cc1nccc(-c2ccc3nc(Nc4cc(CN5CCN(C(=O)CC(F)(F)F)CC5)ccn4)[nH]c3c2)n1 [Example 24.01.01, 3,3,3-trifluoro-1-{4-[(2-{[6-(2-methylpyrimidin-4-yl)-1H-benzimidazol-2-yl]amino}pyridin-4-yl)methyl]piperazin-1-yl}propan-1-one]"
